For data set [1] the following is noted: octanol to water; average logP for the essential oil; source not stated; cited from earlier work.
The test system of data set [2] is Candida albicans. In words: Effect of antibacterial basic samples on growth of hand skin microflora, double dilution method. The class given is cell-based. Also noted: key: ++: no growth; +: depressed growth in most areas; +: retarded growth in some areas; confluent growth-of test microorganisms. The note with it: 5% solution of sample in purified water with 0.5% Tween 80, 30 minutes; 48 hours at 37 degrees Celsius. The method, then:
(§1) A mixture consisting of purified water and 0.5% Tween 80 was used as a base to include the components of the complex. Samples were prepared using a magnetic stirrer by solubilizing the components of the quad complex in Tween 80 and gradually introducing them into purified water at 350 rpm. The stability of the samples was evaluated visually, by the absence of separation of the fatty phase from the aqueous solution. 2 strains of microorganisms of normal microflora, widely represented on the skin of the hands, were selected: Staphylococcus epidermidis and Micrococcus luteus. Microorganisms of transient opportunistic microflora present on the skin of the hands were also selected: Staphylococcus aureus, Escherichia coli and fungi of Candida albicans genus. Microorganisms were obtained by washing from the skin of the hands of subjects or using standard strains, cultivating isolated microorganisms and counting the number of grown colonies of microorganisms. The method of the analysis is based on the double dilution method and consists in preparing a suspension of bacterial cells of selected microorganisms (S. aureus, E. coli, C. albicans, S. epidermidis, M. luteus) separately at a concentration of 1×10^9 cells/ml. Next, 0.2 ml of a suspension of bacterial cells is added to 1.8 ml of a 5% solution of antibacterial components. In 30 minutes, 1 ml of the resulting mixture is added to a test tube with 9 ml of sterile saline 0.9%. In 15 more minutes, a series of dilutions is prepared in sterile saline to a concentration of 10^3 cells/ml. 0.1 ml of a solution of the initial concentration and successive dilutions is added to the surface of cups with a special nutrient medium for the growth of selected microorganisms separately. The cultures are incubated for 48 hours at 37 degrees Celsius and the colonies are counted by the standard method. The parameter for the overall assessment of the effect of the biologically active quad complex on the growth of representatives of the normal microflora was the presence or no growth of microorganisms, determined by the microbiologist based on the results of the study. The indicator of bacterial growth allows evaluating the effect of microflora on microorganisms and drawing a conclusion about the effect of the quad complex on the microflora of hand skin. The general positive trend in the use of the components of the claimed quad complex is the absence of a negative effect on the normal microflora of the skin of the hands and a pronounced antibacterial effect on the transient microflora, which will ensure the maintenance of natural non-pathogenic microflora for dermatological comfort and hygiene of hand skin.

For data set [3], the system named is Escherichia coli. The data set is described as above. The note with it: 5% solution of sample in purified water with 0.5% Tween 80, 30 minutes; 48 hours at 37 degrees Celsius. Also noted: key: ++: no growth; +: depressed growth in most areas; +: retarded growth in some areas; confluent growth-of test microorganisms. Type of data set: cell-based. The method, then:
as §1

For data set [4], the system named is Micrococcus luteus. The data set is described as above. Also noted: key: ++: no growth; +: depressed growth in most areas; +: retarded growth in some areas; confluent growth-of test microorganisms. The note with it: 5% solution of sample in purified water with 0.5% Tween 80, 30 minutes; 48 hours at 37 degrees Celsius. Type of data set: cell-based. The method, then:
as §1

Data set [5] relates to Staphylococcus aureus. The description is as above. Conditions: 5% solution of sample in purified water with 0.5% Tween 80, 30 minutes; 48 hours at 37 degrees Celsius. The class given is cell-based. Also noted: key: ++: no growth; +: depressed growth in most areas; +: retarded growth in some areas; confluent growth-of test microorganisms. As for the experimental part:
as §1

The subject of data set [6] is Staphylococcus epidermidis. The data set is described as above. The class given is cell-based. Set-up: key: ++: no growth; +: depressed growth in most areas; +: retarded growth in some areas; confluent growth-of test microorganisms. Conditions: 5% solution of sample in purified water with 0.5% Tween 80, 30 minutes; 48 hours at 37 degrees Celsius. As for the experimental part:
as §1

In data set [7] the test system is Candida albicans. Described as above. Also noted: key: +: confluent growth-of test microorganisms as in the control; +: retarded or depressed growth; -: no growth. Type of data set: cell-based. The note with it: 5% solution of sample in purified water with 0.5% Tween 80, 30 minutes; 48 hours at 37 degrees Celsius. As for the experimental part:
as §1

Data set [8] has as its system Escherichia coli. Described as above. Type of data set: cell-based. Also noted: key: +: confluent growth-of test microorganisms as in the control; +: retarded or depressed growth; -: no growth. Conditions: 5% solution of sample in purified water with 0.5% Tween 80, 30 minutes; 48 hours at 37 degrees Celsius. As for the experimental part:
as §1

The test system of data set [9] is Micrococcus luteus. The description is as above. Set-up: key: +: confluent growth-of test microorganisms as in the control; +: retarded or depressed growth; -: no growth. The class given is cell-based. The note with it: 5% solution of sample in purified water with 0.5% Tween 80, 30 minutes; 48 hours at 37 degrees Celsius. As for the experimental part: as §1
Data set [10] concerns Staphylococcus aureus. The description is as above. The class given is cell-based. Set-up: key: +: confluent growth-of test microorganisms as in the control; +: retarded or depressed growth; -: no growth. The note with it: 5% solution of sample in purified water with 0.5% Tween 80, 30 minutes; 48 hours at 37 degrees Celsius. As for the experimental part: as §1
Data set [11] has as its system Staphylococcus epidermidis. The data set is described as above. The class given is cell-based. Also noted: key: +: confluent growth-of test microorganisms as in the control; +: retarded or depressed growth; -: no growth. The note with it: 5% solution of sample in purified water with 0.5% Tween 80, 30 minutes; 48 hours at 37 degrees Celsius. As for the experimental part:
as §1

As to `CC12CCC(CC1)C(C)(C)O2` [1,8-cineol 0,15%, 1,8-cineol], the lipophilicity (logP) (as a rule, the decadic logarithm of the partition coefficient of the neutral form, usually between octanol and water) in [1] is listed as 2.82. For the same compound, the growth of test-strain entry in the data set with Candida albicans [2] is recorded as “-”; with Escherichia coli [3] it was “+”; in the data set on Micrococcus luteus [4], “-”; with Staphylococcus aureus [5], “-”; in [6], “-”.

In the case of `OO` [Hydrogen peroxide 3%, Hydrogen peroxide], the growth of test-strain result (with Candida albicans [2]; in the data set on Escherichia coli [3]; with Micrococcus luteus [4]; in the data set with Staphylococcus aureus [5]; in [6]) was “+” throughout.

Regarding `CC(C)=CCC[C@](C)(O)[C@@H]1CC=C(C)CC1` [Alpha-bisabolol 0,10%, alpha-bisabolol], in data set [1], the logP is listed as 3.80. Further, the growth of test-strain result is recorded as “-” in the data set with Candida albicans [2]; “+” in the data set on Escherichia coli [3]; “-” with Micrococcus luteus [4]; “+” in the data set on Staphylococcus aureus [5]; “-” in data set [6].

For “Benzalkonium chloride [Benzalkonium chloride 0,1%]”, the growth of test-strain entry (in the data set on Candida albicans [7]; in the data set with Escherichia coli [8]; in the data set with Micrococcus luteus [9]; in the data set with Staphylococcus aureus [10]; in data set [11]) was “++” throughout.

Regarding `CCO` [Ethyl alcohol 96%, Ethyl alcohol], the growth of test-strain result (in the data set with Candida albicans [7]; with Escherichia coli [8]; in the data set on Micrococcus luteus [9]; in the data set on Staphylococcus aureus [10]; in [11]) was “++” in each case.

The record behind these values is patent EP4316456A1, “BIOLOGICALLY ACTIVE QUADROCOMPLEX FOR REGULATING THE BIODIVERSITY OF SKIN MICROBIOTA” (SkyLab AG, priority 2021, dated 2022).
